In paper PMC8151276, “An Integrated Approach toward NanoBRET Tracers for Analysis of GPCR Ligand Engagement” (Molecules, 2021):
Blank lines part the entries; values can stand above or below the molecule they belong to.

Key:
CHRM4 = target: T1, CHRM4 (Homo sapiens, UniProt P08173); test: NanoBRET screen HiBiT-CHRM4 in HEK293; type: binding
T1 construct: purchased Promega (in-house HiBiT-GPCR construct library, NanoBRET)
T1 sequence (P08173 1-479): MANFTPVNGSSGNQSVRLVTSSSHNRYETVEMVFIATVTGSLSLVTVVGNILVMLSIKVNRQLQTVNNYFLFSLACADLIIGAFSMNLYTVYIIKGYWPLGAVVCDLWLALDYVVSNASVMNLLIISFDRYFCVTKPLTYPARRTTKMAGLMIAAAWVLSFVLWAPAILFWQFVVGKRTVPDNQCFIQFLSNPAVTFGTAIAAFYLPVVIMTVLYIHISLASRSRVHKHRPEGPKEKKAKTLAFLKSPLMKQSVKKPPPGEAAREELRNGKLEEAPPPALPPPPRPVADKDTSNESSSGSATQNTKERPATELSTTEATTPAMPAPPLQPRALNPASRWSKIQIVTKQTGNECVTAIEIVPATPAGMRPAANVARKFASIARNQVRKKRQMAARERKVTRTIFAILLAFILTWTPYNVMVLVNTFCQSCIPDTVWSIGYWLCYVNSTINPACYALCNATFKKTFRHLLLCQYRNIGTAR
Description: (§1) Each tracer candidate was screened across the entire library of HiBiT-GPCR constructs using NanoBRET as the detection modality. As depicted in Figure 4A, the specificity of interactions was evaluated through decrease in BRET due to competitive displacement of a bound tracer by excess parental compound. Each tracer was analyzed for binding to each HiBiT-GPCR fusion in the absence and in the presence of competing parental compound. Briefly, HEK293 cells were transfected with HiBiT-GPCR constructs diluted into promoterless DNA to reduce expression and maximize translocation to the cell surface. Each tracer candidate was then screened at concentrations of 1 μM and 0.1 μM across cells expressing these fusions. Cells were treated for 1.5 h with tracer either alone or in the presence of 20 μM competing parental compound (i.e., control). BRET was measured upon addition of purified LgBiT and subsequent complementation with HiBiT genetically fused to a GPCR. The specificity of interactions was assessed through a decrease in BRET signal due to competitive displacement of the bound tracer. To further gauge the robustness of these interactions, the fold response over the control (i.e., BRETtracer/BRETcontrol) was calculated. We chose a 1.5-fold response, which translates to ≥7-fold signal over noise as the minimal threshold required to score an interaction as positive.
(§2) HiBiT-GPCR DNA constructs were diluted in 10 mM Tris pH 8 to a final concentration of 0.01 μg/μL, arrayed in 96-well plates and stored at −20 °C. For transfection, HEK293 cells were suspended in Opti-MEM (without phenol red) supplemented with 2% fetal bovine serum (Seradigm) and 100 units/mL penicillin–streptomycin (Gibco) at a final concentration of 220,000 cells/mL and dispensed into white 96-well plates at 90 μL/well. Subsequent transfections and screens were carried using an Agilent Bravo Automated Liquid Handling Platform. First, the 96-well HiBiT DNA arrays were diluted 25-fold in Opti-MEM (without serum or phenol red) to a final concentration of 0.0004 μg/μL and 20 μL of the diluted DNAs were transferred into new 96-well plates. Next, promoterless carrier DNA (1 μg/μL) was diluted 25-fold (0.04 μg/μL) and then dispensed into the diluted arrays at 20 μL/well. Following brief mixing, Viafect transfection reagent (Promega) diluted 16-fold into Opti-MEM was dispensed into the plates at 40 μL/well. After mixing by pipetting, plates were incubated for 10 min on the pipetting station deck. The DNA-transfection reagent complexes were then added to plates containing cells. To facilitate the screen, 10 μL of DNA-transfection reagent complexes were added in duplicates to the top 4 and bottom 4 rows, resulting in two identical 48-well arrays per plate. Plates with transfected cells were incubated for 18–20 h at 37 °C/5% CO2. A screen of each tracer across the entire library using two different concentrations requires duplicate plates of transfected cells. Depending on the number of tracers being screened, transfections can be scaled up using the same ratios. The next day, for each tracer, four 20× screening solutions in tracer dilution buffer (Promega) were prepared: two duplicates at final concentration of 20 μM and two duplicates at a final concentration of 2 μM. […] The four resulting solutions were diluted 4-fold in Opti-MEM without serum or phenol red to generate 5× solutions (5 µM and 0.5 µM tracer +/− 100 μM competing compound). To screen the library, a BioTek MultiFlo FX liquid dispenser was used to dispense 22.5 µL of tracer solution to the top 4 rows and 22.5 µL tracer + competing compound solution to the 4 bottom rows. Plates were briefly mixed on an orbital shaker and incubated for 1.5 h at room temperature. […] Plates were briefly mixed on an orbital shaker and incubated for 15 min to allow complementation.

FZD10 = target: T2, FZD10 (Homo sapiens, UniProt Q9ULW2); test: NanoBRET screen HiBiT-FZD10 in HEK293; type: binding
T2 construct: purchased Promega (in-house HiBiT-GPCR construct library, NanoBRET)
T2 sequence (Q9ULW2 21-581): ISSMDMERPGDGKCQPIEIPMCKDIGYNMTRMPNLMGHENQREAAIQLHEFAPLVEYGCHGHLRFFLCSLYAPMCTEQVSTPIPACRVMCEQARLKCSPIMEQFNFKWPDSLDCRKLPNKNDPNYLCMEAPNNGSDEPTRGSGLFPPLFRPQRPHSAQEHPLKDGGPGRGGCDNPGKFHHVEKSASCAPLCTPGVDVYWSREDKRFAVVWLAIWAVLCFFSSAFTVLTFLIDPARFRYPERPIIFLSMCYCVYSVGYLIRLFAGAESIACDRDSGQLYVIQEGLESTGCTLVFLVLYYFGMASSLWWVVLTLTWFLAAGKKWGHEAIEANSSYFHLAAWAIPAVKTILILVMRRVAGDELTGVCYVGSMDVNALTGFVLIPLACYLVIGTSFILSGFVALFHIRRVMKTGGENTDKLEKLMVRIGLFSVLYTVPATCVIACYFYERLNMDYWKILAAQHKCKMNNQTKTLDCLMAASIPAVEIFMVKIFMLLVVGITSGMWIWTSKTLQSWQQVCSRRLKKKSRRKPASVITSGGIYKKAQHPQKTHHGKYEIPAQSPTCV
Description: as §1, §2

[1] = tracer at 0.1μM, listed as amitriptyline-b-2-NB590

SMILES: CCOC(=O)c1cc(C#N)c(N2CCC(C(=O)NS(=O)(=O)Cc3ccccc3/C=C/C(=O)NCCNC(=O)CCc3ccc4n3[B-](F)(F)[N+]3=C(c5ccc[nH]5)C=CC3=C4)CC2)nc1C [AZD1283-1-NB590]
NanoBRET Fold Response (CHRM4; CHRM4, 0.1μM): 0.97
NanoBRET Fold Response (CHRM4; CHRM4, 1μM): 1.06
NanoBRET Fold Response (FZD10; FZD10, 0.1μM): 1.01
NanoBRET Fold Response (FZD10; FZD10, 1μM): 1.02

SMILES: CN(C)CCC=C1c2ccccc2CCc2ccc(C(=O)NCCNC(=O)CCOCCOCCOCCOCCNC(=O)CCc3ccc4n3[B-](F)(F)[N+]3=C(c5ccc[nH]5)C=CC3=C4)cc21 [Amitriptyline-a-2-NB590]
NanoBRET Fold Response (CHRM4; tracer at 1μM): 1.45
NanoBRET Fold Response (FZD10; tracer at 0.1μM): 0.97
NanoBRET Fold Response (FZD10; tracer at 1μM): 1.01

SMILES: CN(C)CCC=C1c2ccccc2CCc2ccc(C(=O)NCCNC(=O)CCOCCOCCOCCOCCNC(=O)CCc3ccc4n3[B-](F)(F)[N+]3=C(c5ccc[nH]5)C=CC3=C4)cc21 [Amitriptyline-b-2-NB590]
NanoBRET Fold Response (CHRM4; [1]): 3.79
NanoBRET Fold Response (CHRM4; tracer at 1μM, listed as amitriptyline-b-2-NB590): 1.75
NanoBRET Fold Response (FZD10; [1]): 0.18
NanoBRET Fold Response (FZD10; tracer at 1μM): 0.99

SMILES: CN(CCC=C1c2ccccc2CCc2ccccc21)C(=O)CCOCCOCCOCCOCCNC(=O)CCc1ccc2n1[B-](F)(F)[N+]1=C(c3ccc[nH]3)C=CC1=C2 [Amitriptyline-e-2-NB590]
NanoBRET Fold Response (CHRM4; tracer at 1μM): 1.25
NanoBRET Fold Response (FZD10; tracer at 1μM): 1.01

Now from value to molecule:

NanoBRET Fold Response (CHRM4; CHRM4, tracer 0.1μM): 1.17
NanoBRET Fold Response (CHRM4; CHRM4, tracer 1μM): 1.39
NanoBRET Fold Response (FZD10; FZD10, tracer 0.1μM): 0.99
NanoBRET Fold Response (FZD10; FZD10, tracer 1μM): 0.99
SMILES: N#CN=C(NCCCOc1cccc(CN2CCCCC2)c1)NCCNC(=O)CCOCCOCCOCCOCCNC(=O)CCc1ccc2n1[B-](F)(F)[N+]1=C(c3ccc[nH]3)C=CC1=C2 [Aminopotentidine-2-NB590]

NanoBRET Fold Response (CHRM4; 0.1μM tracer): 0.74
NanoBRET Fold Response (CHRM4; 1μM tracer): 0.98
NanoBRET Fold Response (FZD10; 0.1μM tracer): 0.93
NanoBRET Fold Response (FZD10; 1μM tracer): 0.93
SMILES: COc1ccc2c(n1)c(CCNC(C)=O)cn2CCNC(=O)CCc1ccc2n1[B-](F)(F)[N+]1=C(c3ccc[nH]3)C=CC1=C2 [Azamelatonin-1-NB590]

NanoBRET Fold Response (CHRM4; 0.1μM tracer): 0.77
NanoBRET Fold Response (CHRM4; 1μM tracer): 0.98
NanoBRET Fold Response (FZD10; 0.1μM tracer): 0.96
NanoBRET Fold Response (FZD10; 1μM tracer): 0.89
SMILES: COc1ccc2[nH]c(-c3ccc(CNC(=O)CCOCCOCCOCCOCCNC(=O)CCc4ccc5n4[B-](F)(F)[N+]4=C(c6ccc[nH]6)C=CC4=C5)cc3)c(CCNC(C)=O)c2n1 [AzomelatoninICO9-2-NB590]

NanoBRET Fold Response (CHRM4; CHRM4, 0.1μM tracer): 1.55
NanoBRET Fold Response (CHRM4; CHRM4, 1μM tracer): 1.90
NanoBRET Fold Response (FZD10; FZD10, 0.1μM tracer): 1.01
NanoBRET Fold Response (FZD10; FZD10, 1μM tracer): 0.99
SMILES: O=C(CCOCCOCCOCCOCCNC(=O)CCc1ccc2n1[B-](F)(F)[N+]1=C(c3ccc[nH]3)C=CC1=C2)NCCCN1CCN(C2=Nc3cc(Cl)ccc3Nc3ccccc32)CC1 [Clozapine-a-2-NB590]
